From US20150352072A1, “ZINC N-ACETYL TAURINATE FOR THE TREATMENT OF PROSTATE CANCER” (TRI-INOV, priority 2011, published 2015)
“Also recorded” adds a separate entry of the source.

How the values were obtained:
Format in all cases: cell-based
[1] = test system: LNCaP prostate cancer cell line; assay: Cell count by Trypan blue exclusion, LNCaP cancer cells
Protocol: The LNCaP prostate cancer cell line, deposited in the ATCC under No. CRL-1740, was used.
The cell culture medium was RPMI 1640 complete growth medium (ATCC No. 30-2001), containing 2 mM L-glutamine, 10 mM HEPES and 1.0 mM sodium pyruvate, to which the following were added: • 1) sodium carbonate and glucose in amounts sufficient to obtain a sodium carbonate concentration of 20 mM and a glucose concentration of 25 mM, • 2) […] by volume of a mixture of antibiotics (10 μg/ml of gentamycin, 100 IU of penicillin, 100 μg/ml of streptomycin), and • 3) 10% by volume of fetal calf serum.
(§1) For the dose-dependence studies, the cells (50% confluent) were treated with ATA-Zn at the concentrations of 10^−3, 10^−4, 10^−5, 10^−6, 10^−7, 10^−8 and 10^−9M, for 24 hours, 48 hours and 72 hours in their respective growth medium. After 48 h of treatment, the cells were harvested and counted in the pellet. In parallel, the cell lysates were prepared in order to extract the mRNA for RT-Q-PCR and Western blotting.
(§2) In order to evaluate the number of cells, the cell pellets were mixed with 1 ml of their respective medium and the cell viability and the number of cells were evaluated by means of a Trypan blue exclusion test.
The viable cells and the non-viable cells were counted after Trypan blue exclusion. […] The mortality evolved in the opposite direction, with a maximum increase of about 50%. The concentration of 10^−3M was toxic. The results obtained are reported on the graphs of FIGS. 1a and 1b, which give the percentage of cancer cells relative to the control (cell culture without ATA-Zn) as a function of the concentration of ATA-Zn. FIG. 1a relates to the viable cells and FIG. 1b relates to the non-viable cells.

[2] = test system: Normal prostate epithelial cells (PrECs); assay: Cell count by Trypan blue exclusion, normal PrECs
Protocol: Normal prostate epithelial cells (PrECs) and the PrEC growth medium sold by the company Cambrex Bioscience (Walkersville, Md.) were used by way of comparison.
as §1, §2

cyclin-D1 mRNA [3] = assay: Cyclin-D1 mRNA by RT-Q-PCR in LNCaP cells; conditions: 10^−5-10^−9M, after 24 hours of exposure
Protocol: as §1
(§3) The mRNA was extracted from the cells in culture using the “SV Total RNA isolation” kit from the company Promega and according to the procedure hereinafter:
(§4) A reverse transcription of the RNA was then carried out using the ready to go kit (kit known as “Ready To Go, You Prime First Strand Beads” commercially available from Amersham Biosciences, Piscataway, United States) in accordance with the supplier's instructions using 3 μg of RNA.
(§5) The “LightCycler-Fast Start DNA Master SYBR Green I” test commercially available from Roche Diagnostics, Meylan, France, was used to quantify the gene expression by means of a real-time polymerase chain reaction (PCR). […]
The amount of cyclin-D1 mRNA was measured by RT-Q-PCR according to the procedure previously described in the section entitled “Materials and methods”. […]

cyclin-D1 mRNA [4] = assay: Cyclin-D1 mRNA by RT-Q-PCR in normal cells; conditions: normal cells (PrECs), 24 hours
Protocol: as §1, §3, §4
(§6) The “LightCycler-Fast Start DNA Master SYBR Green I” test commercially available from Roche Diagnostics, Meylan, France, was used to quantify the gene expression by means of a real-time polymerase chain reaction (PCR). The PCR (program: 95° C., 30 seconds; 40 cycles: 95° C., 5 seconds; 60° C., 35 seconds) was carried out using a “Mastercycler ep realplex” apparatus sold by the company Eppendorf, Hamburg, Germany.
(§7) The expression of the target gene was standardized relative to the GAPDH housekeeping gene. […]

Bax/Bcl-2 ratio = assay: Bax/Bcl-2 mRNA ratio by RT-Q-PCR in LNCaP cells; conditions: 10^−5-10^−9M, 48 hours
Protocol: as §1, §3, §4, §5
LNCaP cells were incubated with various concentrations of ATA-Zn (10^−5-10^−9M) for 48 hours. The change in the synthesis of Bax mRNA and Bcl-2 mRNA was measured by RT-Q-PCR according to the procedure described previously in the section entitled “Materials and methods”.

Bax and Bcl-2 = assay: Bax/Bcl-2 mRNA by RT-Q-PCR in PrECs; conditions: Bax and Bcl-2 base amount too low for PCR amplification, a conclusion
Protocol: as §1, §3, §4, §6, §7

SOD-1 protein = SOD-1 protein by Western blotting in LNCaP cells; conditions: 48 hours, standardized relative to actin
Protocol: (§8) The cells were lysed in the buffer for the radioimmunoprecipitation test, having the composition hereinafter:
(§9) The proteins were then separated by SDS-PAGE and were transferred onto a Hybond-P PVDF membrane (Amersham Biosciences, Pantin, France). The membranes were incubated for 1 hour at ambient temperature with a blocking solution consisting of skimmed milk powder at 5% in TBS-T buffer (50 mM Tris-HCl, pH 8.0, 150 mM NaCl, Tween-20 at 0.1%).
(§10) The membranes were then incubated with rabbit primary antibodies directed against cyclin-D1 (No. 29785); the markers Bax (No. 1063.1) and BCL-2 (No. 1017-1); Nrf-2 (No. 2178-1) and SOD-1 (No. 2018-1) all sold by the company Epitomies under the references indicated above, and the A2103 anti-actin, N-terminal, antibodies sold by the company Sigma-Aldrich (Saint Quentin Fallavier, France) in the blocking solution overnight at 4° C. The said antibodies were diluted in accordance with the manufacturer's instructions to 1/1000. The anti-actin antibodies served to standardize the membranes. […]
(§11) LNCaP cells were incubated with a range of ATA-Zn concentrations for 48 hours. The amount of Nrf-2 and SOD-1 proteins were then measured by Western blotting. The quantification was carried out with the “Quantity One” software and the results were standardized relative to the actin data. […]

Nrf-2 protein = Nrf-2 protein by Western blotting in LNCaP cells; conditions: 48 hours, standardized relative to actin
Protocol: as §8, §9, §10, §11

With zinc N-acetyltaurinate [ATA-Zn] the “antiproliferative effect / number of cells” value ([1]; LNCaP cancer cells of the prostate, 48 hours, each dose) was “antiproliferative effect; also recorded: reduced the number of cells at each dose”, the “toxicity at the concentration of 10^−3M” value ([1]; LNCaP, 10^−3M) was “toxic” and the “maximum reduction of the number of cells” value ([1]; LNCaP, 48 hours of incubation, highest concentration (10^−4), relative to control) was 25%. For the same substance, the “maximum increase of mortality (non-viable cells)” value ([1]; LNCaP, 48 hours of incubation, relative to control) was “about 50%”, the “concentrations at which nontoxic” value ([1]; general statement on the in vitro cell tests) was “below 10^−3 M” and the “toxicity at the dose of 10^−3M” value ([2]; PrECs, 10^−3M) was “toxic”. For the same substance, the “state of cells after 72 hours with 10^−3M” value ([2]; PrECs, 10^−3M, 72 hours of incubation) was “completely dead”, the “effect on the number of cells” value ([2]; normal PrECs, up to 72 hours of incubation, doses below 10^−3M) was “no effect” and the “synthesis of cyclin-D1 mRNA” value (cyclin-D1 mRNA [3]) was “reduces”. The “synthesis of cyclin-D1 mRNA” value (cyclin-D1 mRNA [4]) was “no effect”, the “Bax/Bcl-2 ratio (mRNA)” value (Bax/Bcl-2 ratio) was “greatly increased” and the “apoptosis in normal PrECs” value (Bax and Bcl-2) was “not influenced”. The “level of the SOD-1 protein” value (SOD-1 protein) was “decreases” and the Nrf-2 protein (Nrf-2 protein) was “repressed”.
